In US20220218725A1, “METHODS AND MATERIALS FOR TREATING CANCER” (Mayo Foundation for Medical Education and Research, priority 2019, published 2022):

Experiments:
[1] = tested on: DHL6 cells; assay: Cell viability, Annexin V/PI assay; settings: DHL6 (DLBCL); 48 hours; KPT-330 0.1-1.0 μM, CS 1-3 mM, single agent or combination
Procedure: Cell lines were purchased from the cell line repositories ATCC (Manassas, Va.) or DSMZ (Braunschweig, Germany). These included MCL cell lines: JeKo-1, Mino; TCL cell lines: Karpas-299, SR-786; DLBCL cell lines: OCI-Ly1 (LY-1), OCI-Ly3 (LY-3), OCI-Ly19 (LY-19), SU-DHL-6 (DHL-6); MM cell lines: RPMI, U266, OPM2, Xgl, KMS2; ALL cell lines: CRL-1783; non-small cell lung cancer: NCI-H460, A549, HCC827; small cell lung cancer: H1048; sarcoma: Fuji, SW872. Cell lines were cultured according to instruction.
KPT-330 purchased from Selleckchem (cat no: S7252) was dissolved in DMSO while CS (Santa Cruz, Calif.S 2016-36-6), sodium salicylate (Sigma-Aldrich, cat no: S3007), acetyl salicylate (Sigma-Aldrich, cat no: CAS 50-78-2) was diluted in PBS. Ketorolac (Sigma-Aldrich, cat no: 1356665), Bortezomib (Selleckchem, cat no: S1013), gemcitabine (Sigma-Aldrich, cat no: G6423), Leptomycin-B (Sigma-Aldrich, cat no: L2913-2X) and KPT-185 (Selleckchem, cat no: S7125) were dissolved in DMSO. The concentration range of KPT-330 was 0.05-1.0 μM while CS was 1-3 mM were used for ex vivo treatment and incubation time ranged from 24 hours to 72 hours. For the PARP inhibitor assay, olaparib 10 μM (SelleckChem, cat no: AZD2281 Ku-0059436) was used.
The viability assessment for cell lines and primary patients samples were conducted with the Annexin V/PI method.

[2] = tested on: U2OS cells transfected with nuclear export reporter construct (NLS-GFP-NES); assay: Nuclear export efficiency assay (NLS-GFP-NES reporter); format: cell-based; settings: 24 hours, KPT-330 at 0.5 μM, 100 reporter-expressing cells scored
Excerpt: A GFP reporter construct was made using the backbone of pEGFP-N1 vector. Specifically, the green fluorescence (GFP) was in-frame tagged with 3 consecutive copies of nuclear localization sequence (NLS) of SV40 large T antigen to the N-terminus and 3 consecutive copies of nuclear export sequences (NES) of HIV Rev to the C-terminus. The resulting construct encodes NLS-GFP-NES fusion protein capable of shuttling freely between the nucleus and the cytoplasm. The construct DNA was transfection into U2OS cells using Lipofectamine 2000 reagent (Life Technologies) according to product instruction. Six hours post transfection, the cells were treated with vehicle, CS, KPT-330, and K+CS for 24 hours. Finally, the treated cells were fixed with 4% PFA, and permeabilized, and stained for endogenous expression of CRM1 protein with anti-CRM1 antibody (Cell Signaling, Danvers, Mass.; catalog number: 46249, dilution 1:1500). Cell images were collected on a Zeiss LSM 780 confocal microscope.

Row | SMILES | % viability normalized for respective controls [1] | cells with complete nuclear localization of GFP [2]
1 | C[N+](C)(C)CCO.O=C([O-])c1ccccc1O [CS, choline salicylate] | 101% | –
2 | O=C(/C=C\n1cnc(-c2cc(C(F)(F)F)cc(C(F)(F)F)c2)n1)NNc1cnccn1 [KPT-330, (Z)-3-[3-[3,5-bis (trifluoromethyl)phenyl]-1,2,4-triazol-1-yl]-N′-pyrazin-2-ylprop-2-enehydrazide] | – | 28%
